Here are results for one molecule from patent US20160304461A1, “QUINOLONE COMPOUND AND PHARMACEUTICAL COMPOSITION” (OTSUKA PHARMACEUTICAL CO., LTD., priority 2007, published 2016).

The test system of data set [1] is human neuroblastoma cell lines SH-SY5Y. Kind of data set: Improvement of mitochondrial dysfunction in MPP+-treated SH-SY5Y cells (Alamar Blue mitochondrial oxidation reduction activity). The data set is classed as cell-based. Conditions: SH-SY5Y cells in 1.5 mM MPP+ medium, relative to cells in DMSO alone = 100%, read-out: Fluorescence Intensity (%). The procedure: Evaluation of Improvement of Mitochondrial Dysfunction using Human Neuroblastoma Cell Lines SH-SY5Y Treated with 1-methyl-4-phenylpyridinium (MPP^+)
In human neuroblastoma cell lines SH-SY5Y in which mitochondrial activity was injured by MPP^+ treatment (Bollimuntha S. et al., J Biol Chem, 280, 2132-2140 (2005) and Shang T. et al., J Biol Chem, 280, 34644-34653 (2005)), improvement of the mitochondrial dysfunction was evaluated on the basis of the measurement value of the mitochondrial oxidation reduction activity using Alamar Blue fluorescent dye after the compound addition (Nakai M. et. al, Exp Neurol, 179, 103-110 (2003)).
The human neuroblastoma cell lines SH-SY5Y were cultured in Dulbecco's Modified Eagle's Medium containing 10% fetal bovine serum (DMEM containing 50 units/ml penicillin and 50 μg/ml streptomycin as antibiotics) at 37° C. in the presence of 5% carbon dioxide. Cells were scattered on a poly-D-lysine-coated 96-well black plate at a concentration of 3-6×10^4 cells/cm^2 (medium amount: 100 μl/well), and cultured in the above medium for two days. Further, the medium was changed to a DMEM containing a 1% N2 supplement (N2-DMEM) or to a medium (100 μl/well) in which 1.5 mM MPP^+ was dissolved. The cells were cultured therein for 39 to 48 hours, and then subjected to a mitochondrial oxidation reduction activity measurement system. A sample compound that had been previously dissolved in dimethyl sulfoxide (DMSO) was diluted with N2-DMEM, and added in a volume of 10 μl/well 24 hours before the activity measurement (final compound concentration: 0.01 to 1 μg/ml).
After removal of the medium by suction, a balanced salt solution containing 10% Alamar Blue (154 mM sodium chloride, 5.6 mM potassium chloride, 2.3 mM calcium chloride, 1.0 mM magnesium chloride, 3.6 mM sodium bicarbonate, 5 mM glucose, 5 mM HEPES, pH 7.2) was added in a volume of 100 μl/well, and reacted in an incubator at 37° C. for 1 hour. The fluorescent intensity was detected using a fluorescence detector (a product of Hamamatsu Photonics K.K., excitation wavelength 530 nm, measurement wavelength 580 nm) to thereby measure the mitochondrial oxidation reduction activity.
The fluorescent intensity of the well of the cells cultured in a medium containing MPP^+ and in each of the sample compounds was relatively evaluated based on a 100% fluorescent intensity of the well of the cells cultured in a medium containing DMSO alone (final concentration: 0.1%).
(In general: The colour change of resazurin is a common sign of viable cells or microbes.)

Each structure is given as a SMILES string.

One may read the melting point as the temperature, or range, at which the solid turns liquid. The molecule `CCCOc1ccc(F)c2c(=O)c(-c3ccsc3)c[nH]c12` [Example 3, 5-Fluoro-8-propoxy-3-thiophen-3-yl-1H-quinolin-4-one] gave a melting point of 208 to 210 °C. Further, the activity at 0.01 µg/mL in data set [1] (test compound 0.01 μg/ml) stood at 54%. For the same molecule, the activity at 0.03 µg/mL in data set [1] (test compound 0.03 μg/ml) turned out to be 63%. Besides, the activity at 0.1 µg/mL in data set [1] (test compound 0.1 μg/ml) worked out at 70%. Further, the activity at 0.3 µg/mL in data set [1] (test compound 0.3 μg/ml) came out at 78%. Further, the activity at 1 µg/mL in data set [1] (test compound 1 μg/ml) was determined as 74%.
